{"source": "paper PMC8778984", "about": "(Pharmaceutics, 2021)", "key": {"[1]": {"target": "T1, DHFR (dihydrofolate reductase), partially purified from chicken liver (Gallus gallus, UniProt P00378)", "T1 construct": "Fresh chicken liver (20 g) was cut into pieces, homogenized in 0.1 M MnCl2 and centrifuged; from tissue; host or cells: chicken liver", "T1 sequence (P00378 1-189)": "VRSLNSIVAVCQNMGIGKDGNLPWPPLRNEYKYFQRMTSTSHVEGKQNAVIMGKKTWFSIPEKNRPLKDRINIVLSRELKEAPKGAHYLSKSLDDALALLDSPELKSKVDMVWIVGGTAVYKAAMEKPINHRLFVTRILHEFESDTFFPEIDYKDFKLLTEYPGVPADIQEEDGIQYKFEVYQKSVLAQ", "assay": "Cell-free enzymatic assay for DHFR (NADPH oxidation, absorbance at 340 nm)", "assay_type": "biochemical", "details": "for % Inhibition relative to MTX: DHFR inhibitory potency relative to MTX", "experimental": "This was carried out by the procedure of Kaufman and Kemerer with some modifications: Fresh chicken liver (20 g) was cut into pieces, homogenized in 0.1 M MnCl2 and centrifuged. The supernatant was brought to pH 5–6 with HCl, and ZnSO4 was added gradually to obtain a final concentration of 20 mM. The pH was elevated to pH 7.5–8 by the addition of solid NaHCO3. […] The proteins that remained in the supernatant were precipitated with 4.54 M ammonium sulfate. The precipitate was then dissolved in 50 mM Tris-HCl (pH 7.5) containing 0.1 M KCl and dialyzed for two days against the same buffer, and then frozen in aliquots at −80 °C until used.\n(§1) The assay was based on DHFR-dependent reduction of dihydrofolate to tetrahydrofolate. In this process, NADPH is oxidized to NADP, and the extent of the oxidation is monitored by the decrease in absorbance at 340 nm. Tubes containing 1.0 mL each of 0.05 M Tris-HCl buffer (pH 7.5) 0.5 M KCl, 0.137 mM NADPH, and 0.187 mM DHF were incubated for 1 h at 25 °C in the absence and the presence of partially purified DHFR (35 µg/mL) and increasing concentrations of MTX or its derivatives. The absorbance at 340 nm was then monitored.\nFigure 1 Inhibition of dihydrofolate reductase by MTX and MTX analogues. The indicated concentrations of MTX and its derivatives were analyzed for their potencies to inhibit the reduction of dihydrofolate to tetrahydrofolate by DHFR. In this process, NADPH is oxidized to NADP and the extent of this oxidation is monitored by the decrease in absorbance at 340 nm (experimental section)."}, "[2]": {"assay": "Maleimide–thiol exchange assay (incubation with GSH, dialysis, absorbance at 372 nm)", "assay_type": "physicochemical", "experimental": "BSA–S–MAL–(CH2)3–CONH–MTX (0.2 mM) was dissolved in 1.0 mL 0.1 M HEPES, pH 7.3, and transferred to a tube containing 7.5 mg GSH corresponding to […] which are 100 molar excess over the conjugate. The solution was incubated for 7 h at 37 °C, followed by extensive dialysis and lyophilization. Absorbance was read at 372 nm."}, "[3]": {"test_system": "CNS-1 rat glioma cells", "assay": "Growth inhibition, MTT viability assay, CNS-1 cells", "assay_type": "cell-based", "details": "for inhibition compared with MTX (in words): CNS-1 (Figure 4B), at 10 µM, to a lesser extent at 1 µM; for antiproliferative potency compared with MTX (in words): MTX-sensitive cell line CNS-1, 48 h MTT; for antiproliferative potency, BSA–S–S–MTX compared with BSA–(CH2)6–MTX (in words): sensitive glioma cell line CNS-1", "experimental": "(§2) In this study, we used two glioma cell lines: (i) CNS-1; rat glioma; (ii) U251; human glioma. Cells were a generous gift from Dr. Yael Mardor from the Sheba Medical Center, Israel.\n(§3) Cancer cell lines were grown in monoculture in 96-well plates in RPMI (CNS-1 cells) or DMEM containing 10% fetal bovine serum, 2 mM L-glutamine, penicillin (100 units/mL), and streptomycin (0.1 mg/mL) under humidified atmosphere containing 5% CO2. […] Cell viability was measured after 48 h using a standard MTT (3-(4,5-dimethylthiazol-2-yl)-2,5-diphenyltetrazolium bromide) assay, as described before."}, "[4]": {"test_system": "U251 human glioma cells", "assay": "Growth inhibition, MTT viability assay, U251 cells", "assay_type": "cell-based", "details": "for antiproliferative potency compared with MTX (in words): MTX-insensitive glioma cell line U251, 48 h MTT; for antiproliferative potency, BSA–S–S–MTX compared with BSA–(CH2)6–MTX (in words): insensitive glioma cell line U251", "experimental": "as §2, §3"}, "[5]": {"target": "T2, DHFR (dihydrofolate reductase) (Gallus gallus, UniProt P00378)", "T2 construct": "Fresh chicken liver (20 g) was cut into pieces, homogenized in 0.1 M MnCl2 and centrifuged; from tissue; host or cells: chicken liver", "T2 sequence (P00378 1-189)": "T1 sequence (P00378 1-189)", "assay": "Reactivation of BSA–MTX analogues by DTT, GSH or L-cysteine, read out as DHFR inhibitory potency", "assay_type": "biochemical, chicken", "details": "for Fold Reactivation by DTT: 2 mM DTT (dithiothreitol); for reactivation by glutathione and L-cysteine (in words): GSH or L-cysteine at concentrations of 100 μM or lower; for % Activity Relative to MTX: Table 2, + 2 mM DTT", "experimental": "as §1\nA solution of BSA–GSSG–MTX (50 μM in 0.1 M HEPES buffer, pH 7.4, 130 mM NaCl) was divided into plastic tubes (1.0 mL/tube) and incubated for 2 h at 25 °C in the absence and the presence of 2 mM DTT and the indicated concentrations of either GSH or L-cysteine. Samples were then analyzed for their DHFR inhibitory potencies and the IC50 values were determined. Results are expressed as percent of maximal reactivation (obtained by preincubation with 2 mM DTT). Each point is the arithmetic mean of n = 4 tubes ± SEM."}, "[6]": {"test_system": "cancer cell lines", "assay": "Antiproliferative efficacy in the cancer cell lines (unpublished results)", "assay_type": "cell-based"}, "[7]": {"set-up": "method as in printed", "details": "ref not given, cited from earlier work"}, "[8]": {"test_system": "glioma cell lines", "details": "read-out: average EC50; variety of glioma cell lines, large variation among lines; cited from earlier work"}, "[9]": {"details": "Table 2, without DTT, read-out: DHFR Inhibitory Potency (IC50)"}, "[10]": {"details": "Table 1, 1 h at 25 °C, 0.137 mM NADPH, 0.187 mM DHF, read-out: IC50"}}, "note": "Entries after “also recorded” stand apart in the source; their conditions may differ. Read-outs that look alike come from different tables or passages of the source.", "data": [{"molecule": "BSA–S–MAL–(CH2)3–CONH–(CH2)6–NH^γCO–MTX [BSA–(CH2)6–MTX]", "values": [{"measurement": "% Activity Relative to MTX", "setting": "[1]; Table 2, without DTT", "result": 7.0, "unit": "%"}, {"measurement": "IC50", "setting": "[1]; [9]", "result": "790 ± 30", "unit": "nM"}, {"measurement": "maleimide–thiol exchange (in words)", "setting": "[2]; 100-fold molar excess of GSH, 7 h, pH 7.3, 37 °C, listed as BSA–S–MAL–(CH2)3–CONH–MTX", "result": "did not undergo significant maleimide–thiol exchange; also recorded: such exchange does not occur"}, {"measurement": "Absorbance at 372 nm per mg Protein", "setting": "[2]; Control (no GSH)", "result": "0.479 ± 0.03"}, {"measurement": "Absorbance at 372 nm per mg Protein", "setting": "[2]; GSH, 100 molar excess, 7 h, 37 °C, pH 7.3, then dialysis", "result": "0.487 ± 0.03"}, {"measurement": "cleavage of the spacer peptide bond (in words)", "setting": "[2]; neutral pH", "result": "not cleaved"}, {"measurement": "inhibition compared with MTX (in words)", "setting": "[3]", "result": "significantly more inhibitory than MTX"}, {"measurement": "antiproliferative potency compared with MTX (in words)", "setting": "[3]", "result": "less potent than MTX"}, {"measurement": "antiproliferative potency, BSA–S–S–MTX compared with BSA–(CH2)6–MTX (in words)", "setting": "[3]", "result": "essentially equipotent"}, {"measurement": "antiproliferative potency compared with MTX (in words)", "setting": "[4]", "result": "significantly more potent"}, {"measurement": "antiproliferative potency, BSA–S–S–MTX compared with BSA–(CH2)6–MTX (in words)", "setting": "[4]", "result": "essentially equipotent"}]}, {"molecule": "CN(Cc1cnc2nc(N)nc(N)c2n1)c1ccc(C(=O)N[C@@H](CCC(=O)NCCCCCCN)C(=O)O)cc1", "note": "[MTX–hexylamine, MTX–CONH–(CH2)6–NH2]", "values": [{"measurement": "IC50", "setting": "[1]; [10]", "result": "80 ± 4", "unit": "nM"}, {"measurement": "% Inhibition relative to MTX", "setting": "[1]; Table 1", "result": 69, "unit": "%"}, {"measurement": "% of the DHFR inhibitory potency of MTX", "setting": "[1]; running text and scheme legend", "result": 69, "unit": "%"}]}, {"molecule": "CN(Cc1cnc2nc(N)nc(N)c2n1)c1ccc(C(=O)NC(CCC(=O)NCCSSCCN)C(=O)O)cc1", "note": "(centres unmarked) [MTX–dicystamine, MTX–CONH–(CH2)2–S–S–(CH2)2–NH2]", "values": [{"measurement": "IC50", "setting": "[1]; [10]", "result": "110 ± 12", "unit": "nM"}, {"measurement": "% Inhibition relative to MTX", "setting": "[1]; Table 1", "result": 50, "unit": "%"}]}, {"molecule": "CN(Cc1cnc2nc(N)nc(N)c2n1)c1ccc(C(=O)NC(CCC(=O)NCCS)C(=O)O)cc1", "note": "(centres unmarked) [MTX–cystamine, MTX–CONH–(CH2)2–SH]", "values": [{"measurement": "IC50", "setting": "[1]; [10]", "result": "340 ± 11", "unit": "nM"}, {"measurement": "% Inhibition relative to MTX", "setting": "[1]; Table 1", "result": 16.2, "unit": "%"}]}, {"molecule": "BSA–S–MAL–(CH2)3–CO–NH–GSSG–NH^γCO–MTX [BSA–GSSG–MTX]", "values": [{"measurement": "% Activity Relative to MTX", "setting": "[1]; Table 2, without DTT", "result": 3.14, "unit": "%"}, {"measurement": "IC50", "setting": "[1]; [9]", "result": "1750 ± 120", "unit": "nM"}, {"measurement": "Fold Reactivation by DTT", "setting": "[5]", "result": 5.16, "unit": "fold"}, {"measurement": "reactivation by glutathione and L-cysteine (in words)", "setting": "[5]", "result": "do not reactivate"}, {"measurement": "% Activity Relative to MTX", "setting": "[5]", "result": 16.2, "unit": "%"}, {"measurement": "reactivation of DHFR inhibitory potency by GSH and cysteine (in words)", "setting": "[5]; cell-free state", "result": "highly effective in reactivating"}, {"measurement": "antiproliferative efficacy (in words)", "setting": "[6]", "result": "low antiproliferative efficacy"}]}, {"molecule": "CN(Cc1cnc2nc(N)nc(N)c2n1)c1ccc(C(=O)N[C@@H](CCC(=O)O)C(=O)O)cc1", "note": "[Methotrexate, reference compound]", "values": [{"measurement": "viability in comparison to nontreated cells", "setting": "[3]; CNS-1, at maximal effect, 48 h", "result": 36, "unit": "%"}, {"measurement": "EC50", "setting": "[3]; Rattus norvegicus, Glioma cell, CNS-1, 48 h, MTT, read-out: EC50 (concentration needed to obtain 50% of viable cells relative to untreated cells)", "result": "~70", "unit": "nM"}, {"measurement": "Emax", "setting": "[3]; Rattus norvegicus, Glioma cell, CNS-1, within 48 h, read-out: maximal effect", "result": 64, "unit": "%"}, {"measurement": "EC50", "setting": "[4]; Homo sapiens, U-251, U251, 48 h, MTT, read-out: EC50 (concentration needed to obtain 50% of viable cells relative to untreated cells)", "result": "~10000", "unit": "nM"}, {"measurement": "Emax", "setting": "[4]; Homo sapiens, U-251, U251, at ~10 µM, within 48 h, read-out: maximum effect", "result": 49, "unit": "%"}, {"measurement": "pKa", "setting": "[7]; α-carboxylate", "result": "~ 2.1"}, {"measurement": "pKa", "setting": "[7]; γ-carboxylate", "result": "~ 4.1"}, {"measurement": "EC50", "setting": "[8]", "result": 2400, "unit": "nM"}]}, {"molecule": "BSA–S–MAL–(CH2)3–CONH–(CH2)2–S–S–(CH2)2–NH^γCO–MTX [BSA–S–S–MTX]", "values": [{"measurement": "% Activity Relative to MTX", "setting": "[1]; Table 2, without DTT", "result": 2.0, "unit": "%"}, {"measurement": "IC50", "setting": "[1]; [9]", "result": "2750 ± 200", "unit": "nM"}, {"measurement": "Fold Reactivation by DTT", "setting": "[5]", "result": 7.05, "unit": "fold"}, {"measurement": "reactivation by GSH (in words)", "setting": "[5]; GSH at a concentration of 1 mM or higher", "result": "reactivated"}, {"measurement": "reactivation by glutathione and L-cysteine (in words)", "setting": "[5]", "result": "do not reactivate"}, {"measurement": "% Activity Relative to MTX", "setting": "[5]", "result": 14.1, "unit": "%"}, {"measurement": "inhibition compared with MTX (in words)", "setting": "[3]", "result": "significantly more inhibitory than MTX"}, {"measurement": "antiproliferative potency compared with MTX (in words)", "setting": "[3]", "result": "less potent than MTX"}, {"measurement": "antiproliferative potency, BSA–S–S–MTX compared with BSA–(CH2)6–MTX (in words)", "setting": "[3]", "result": "slightly less potent than BSA–(CH2)6–MTX; also recorded: essentially equipotent"}, {"measurement": "antiproliferative potency compared with MTX (in words)", "setting": "[4]", "result": "significantly more potent"}, {"measurement": "antiproliferative potency, BSA–S–S–MTX compared with BSA–(CH2)6–MTX (in words)", "setting": "[4]", "result": "slightly less potent than BSA–(CH2)6–MTX; also recorded: essentially equipotent"}]}]}
